Like-named read-outs stand apart in the source and are kept apart here.
Tests used:
Type in all cases: biochemical
[1] = molecular target: CDK9/CycT1 (Homo sapiens, UniProt P50750); assay: ADP-Glo kinase assay on CDK enzymatic activity, CDK9/CycT1; details: 10 concentrations from 10 μM, 4-fold, 60 min room temperature
Source text: (§1) Test samples: the compounds of the present invention, having structures shown above.
(§2) ADP-Glo Kinase Assay (ADP-Glo kinase kit), DMSO (dimethyl sulfoxide), CDK9/CycT1 (cyclin-dependent kinase 9/cyclin T1), CDK tide (cyclin-dependent kinase substrate peptide fragments), CDK1/CycE1 (cyclin-dependent kinase 1/cyclin E1), CDK2/CycA2 (cyclin-dependent kinase 2/cyclin A2), CDK3/CycE1 (cyclin-dependent kinase 3/cyclin E1), CDK4/CycD3 (cyclin-dependent kinase 4/cyclin D3), CDK5/p25NCK (cyclin-dependent kinase 5/p25), and AZD 4573.
(§3) A 384-well white plate, a 96-well plate, a microplate oscillator, a centrifuge, and a microplate reader.
(§4) The compounds were dissolved in DMSO and diluted 4-fold in the 96-well plate to obtain stock solutions with 10 concentration gradients, and added into a 384-well plate system to obtain a series of 10 concentration gradients of compound solutions with final concentrations of 10 μM starting and 4-fold gradient decreasing. 1 μM AZD4573 was used as compound positive control (PC) and 0.5% DMSO as solvent vehicle control (VC), ten duplicated wells each for PC and VC.
(§5) 1 μL of compound solution and 2 μL of 2× kinase solution were transferred to each well, and the plate was centrifuged at 1000 g for 30 s and left at room temperature for 10 min. A mixture of 2× substrate and ATP was prepared in 1× kinase buffer. The reaction was started after adding 2 μL of substrate and ATP into the plate. The plate was centrifuged at 1000 g for 30 s. The assay plate was closed and left at room temperature for 60 min. The reaction system was added with 4 μL of ADP Glo reagent, centrifuged at 1000 rpm for 1 min, and incubated at room temperature for 40 min. The reaction system was added with 8 μL of kinase assay reagent, centrifuged at 1000 rpm for 1 min and incubated at room temperature for 40 min. The […] was read on Biotek.
(§6) The inhibition rate was calculated according to the following formula: […]
(§7) Lumcmpd: compound fluorescence reading; Lumpositive: average value of the fluorescence reading of positive compound control; Lumvehicle: average value of the fluorescence reading of solvent vehicle control.
(§8) IC50 values were fitted using GraphPad 7.0 based on inhibition rates of compounds at different concentrations.

[2] = molecular target: CDK1/CycE1 (Homo sapiens, UniProt P06493); assay: ADP-Glo kinase assay on CDK enzymatic activity, CDK1/CycE1
Protocol: as §1, §3, §4, §5, §6, §7, §8

[3] = molecular target: CDK2/CycA2 (Homo sapiens, UniProt P24941); assay: ADP-Glo kinase assay on CDK enzymatic activity, CDK2/CycA2; details: 10 concentrations from 10 μM, 4-fold, 60 min room temperature
Source text: as §1, §2, §3, §4, §5, §6, §7, §8

[4] = ADP-Glo, 10 concentrations from 10 μM, 4-fold, 60 min room temperature, read-out: CDK1/CycE1/nM (IC50)

CDK1/CycE1, sequence (P06493 whole entry, species assumed): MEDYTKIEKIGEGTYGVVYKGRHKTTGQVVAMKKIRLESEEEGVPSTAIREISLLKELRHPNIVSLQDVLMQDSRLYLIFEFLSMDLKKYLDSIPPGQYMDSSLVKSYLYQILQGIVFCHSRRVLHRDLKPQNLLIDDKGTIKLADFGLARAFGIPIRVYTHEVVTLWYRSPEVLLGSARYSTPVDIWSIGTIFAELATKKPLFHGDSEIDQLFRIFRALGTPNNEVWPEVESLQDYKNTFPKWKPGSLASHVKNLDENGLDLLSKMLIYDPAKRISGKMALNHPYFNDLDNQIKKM
CDK1/CycE1, sequence (P24864 whole entry partner, species assumed): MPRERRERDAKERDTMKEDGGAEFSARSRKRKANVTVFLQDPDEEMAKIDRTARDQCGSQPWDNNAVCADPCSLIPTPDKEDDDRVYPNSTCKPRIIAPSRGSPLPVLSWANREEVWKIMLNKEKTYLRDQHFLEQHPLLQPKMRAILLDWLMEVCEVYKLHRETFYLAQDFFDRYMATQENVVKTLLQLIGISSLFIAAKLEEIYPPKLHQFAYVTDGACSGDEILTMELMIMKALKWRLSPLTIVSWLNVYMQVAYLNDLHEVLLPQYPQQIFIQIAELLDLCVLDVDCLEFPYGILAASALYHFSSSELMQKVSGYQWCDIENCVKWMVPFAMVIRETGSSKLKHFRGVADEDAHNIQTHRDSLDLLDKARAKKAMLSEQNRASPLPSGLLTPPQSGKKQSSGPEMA
CDK9/CycT1, sequence (P50750 whole entry): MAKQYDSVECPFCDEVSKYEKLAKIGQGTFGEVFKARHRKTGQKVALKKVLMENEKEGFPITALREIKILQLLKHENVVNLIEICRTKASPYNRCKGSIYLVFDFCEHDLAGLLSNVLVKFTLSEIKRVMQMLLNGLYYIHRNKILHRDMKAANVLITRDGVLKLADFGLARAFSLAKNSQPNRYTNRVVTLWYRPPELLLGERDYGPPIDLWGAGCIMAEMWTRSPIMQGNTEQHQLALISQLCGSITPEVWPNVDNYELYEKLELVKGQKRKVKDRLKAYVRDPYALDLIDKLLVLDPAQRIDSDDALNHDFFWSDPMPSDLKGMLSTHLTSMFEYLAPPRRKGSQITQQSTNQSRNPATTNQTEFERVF
CDK9/CycT1, sequence (O60563 whole entry partner): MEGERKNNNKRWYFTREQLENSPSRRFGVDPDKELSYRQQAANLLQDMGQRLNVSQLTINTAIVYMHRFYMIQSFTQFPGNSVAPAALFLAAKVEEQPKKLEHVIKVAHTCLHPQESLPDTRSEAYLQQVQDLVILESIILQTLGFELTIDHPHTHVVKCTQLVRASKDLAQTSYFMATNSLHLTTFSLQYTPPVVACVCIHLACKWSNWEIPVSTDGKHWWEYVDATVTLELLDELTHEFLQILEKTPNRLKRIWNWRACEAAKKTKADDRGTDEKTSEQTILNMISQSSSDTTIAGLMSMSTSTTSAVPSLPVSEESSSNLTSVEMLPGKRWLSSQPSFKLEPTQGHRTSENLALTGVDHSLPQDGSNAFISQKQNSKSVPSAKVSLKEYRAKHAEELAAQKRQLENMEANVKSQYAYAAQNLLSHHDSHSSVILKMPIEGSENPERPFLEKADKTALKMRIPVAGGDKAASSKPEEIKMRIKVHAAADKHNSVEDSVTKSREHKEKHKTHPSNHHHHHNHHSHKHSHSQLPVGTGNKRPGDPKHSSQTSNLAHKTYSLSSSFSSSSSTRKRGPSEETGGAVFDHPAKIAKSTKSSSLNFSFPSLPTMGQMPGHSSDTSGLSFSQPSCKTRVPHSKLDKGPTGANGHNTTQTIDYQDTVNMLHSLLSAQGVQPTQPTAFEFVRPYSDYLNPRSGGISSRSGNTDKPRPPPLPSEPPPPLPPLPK

Row | SMILES | IC50 [1] [nM] | IC50 [2, 4] [nM] | IC50 [3] [nM] | IC50 [2] [nM]
1 | CC(C)Nc1nc(C#N)cc2cnc(N[C@H]3C[C@@H](O)C3)nc12 [Compound 133, 2-(((1s,3s)-3-hydroxycyclobutyl)amino)-8-(isopropylamino)pyrido[3,4-d]pyrimidine-6-carbonitrile] | 2 | 29 | 10 | 
2 | CC(C)Nc1nc(C#N)cc2cnc(N[C@H]3C[C@H](O)C3)nc12 [Compound 134, 2-(((1r,3r)-3-hydroxycyclobutyl)amino)-8-(isopropylamino)pyrido[3,4-d]pyrimidine-6-carbonitrile] | 1 | 11 | 5 | 
3 | CC(C)Nc1nc(C#N)cc2cnc(N[C@H]3CC[C@H](N(C)C)CC3)nc12 [Compound 138, 2-(((1r,4r)-4-(dimethylamino)cyclohexyl)amino)-8-(isopropylamino)pyrido[3,4-d]pyrimidine-6-carbonitrile] | 3 | 166 | 49 | 
4 | CC(C)Nc1nc(C#N)cc2cnc(N[C@H]3CC[C@H](N4CCOCC4)CC3)nc12 [Compound 141, 8-(isopropylamino)-2-(((1r,4r)-4-morpholinocyclohexyl)amino)pyrido[3,4-d]pyrimidine-6-carbonitrile] | 2 | 197 | 23 | 
5 | CC(C)Nc1nc(C(F)F)cc2cnc(Nc3cc(CS(C)(=N)=O)ccn3)cc12 (stereo not drawn) [Compound 163, ((2-((7-(difluoromethyl)-5-(isopropylamino)-2,6-naphthyridin-3-yl)amino)pyridin-4-yl)methyl)(methyl)sulfinylimine] | 2 | 31 | 7 | 
6 | CC(C)Nc1nc(C#N)cc2cnc(N[C@H]3C[C@@H](N)C3)cc12 [Compound 164, 7-(((1s,3s)-3-aminocyclobutyl)amino)-1-(isopropylamino)-2,6-naphthyridine-3-carbonitrile] | 1 | 138 | 135 | 
7 | CC(C)Nc1nc(C#N)cc2cnc(N[C@H]3C[C@H](O)C3)cc12 [Compound 166, 7-(((1r,3r)-3-hydroxycyclobutyl)amino)-1-(isopropylamino)-2,6-naphthyridine-3-carbonitrile] | 2 | 14 | 10 | 
8 | CC(=O)N[C@H]1C[C@@H](Nc2cc3c(NC(C)C)nc(C#N)cc3cn2)C1 [Compound 167, N-((1s,3s)-3-((7-cyano-5-(isopropylamino)-2,6-naphthyridin-3-yl)amino)cyclobutyl)acetamide] | 2 | 55 | 19 | 
9 | N#Cc1cc2cnc(N[C@H]3CCCNC3)cc2c(NC2CCCC2)n1 [Compound 168, (S)-1-(cyclopentylamino)-7-(piperidin-3-ylamino)-2,6-naphthyridine-3-carbonitrile] | 1 | 63 | 125 | 
10 | N#Cc1cc2cnc(N[C@H]3CCCNC3)cc2c(N2CCCC2)n1 [Compound 169, (S)-7-(piperidin-3-ylamino)-1-(pyrrolidin-1-yl)-2,6-naphthyridine-3-carbonitrile] | 5 | 798 | 2210 | 
11 | CC(C)Nc1nc(C#N)cc2cnc(Nc3cc(CS(C)(=N)=O)ccn3)cc12 (stereo not drawn) [Compound 170, 1-(isopropylamino)-7-((4-((S-methylsulfonimidoyl)methyl)pyridin-2-yl)amino)-2,6-naphthyridine-3-carbonitrile] | 4 | 144 | 34 | 
12 | CCN(CC)c1nc(C#N)cc2cnc(N[C@H]3CCCNC3)cc12 [Compound 171, (S)-1-(diethylamino)-7-(piperidin-3-ylamino)-2,6-naphthyridine-3-carbonitrile] | 4 | 638 | 815 | 
13 | CC(C)(C)Nc1nc(C#N)cc2cnc(N[C@H]3C[C@@H](N)C3)cc12 [Compound 172, 7-(((1s,3s)-3-aminocyclobutyl)amino)-1-(tert-butylamino)-2,6-naphthyridine-3-carbonitrile] | 1 | 395 | 287 | 
14 | N#Cc1cc2cnc(N[C@H]3CC[C@H](N)C3)cc2c(N[C@@H]2CCOC2)n1 [Compound 173, 7-(((1S,3S)-3-aminocyclopentyl)amino)-1-(((R)-tetrahydrofuran-3-yl)amino)-2,6-naphthyridine-3-carbonitrile] | 4 | 952 | 436 | 
15 | N#Cc1cc2cnc(N[C@H]3C[C@@H](N)C3)cc2c(N[C@@H]2CCOC2)n1 [Compound 174, 7-(((1s,3S)-3-aminocyclobutyl)amino)-1-(((R)-tetrahydrofuran-3-yl)amino)-2,6-naphthyridine-3-carbonitrile] | 2 | 871 | 510 | 
16 | N#Cc1cc2cnc(N[C@H]3C[C@H](N)C3)cc2c(N[C@@H]2CCOC2)n1 [Compound 179, 7-(((trans)-3-aminocyclobutyl)amino)-1-(((R)-tetrahydrofuran-3-yl)amino)-2,6-naphthyridine-3-carbonitrile] | 1 | 272 | 144 | 
17 | N#Cc1cc2cnc(N[C@H]3CCCNC3)cc2c(C2=CCCCC2)n1 [Compound 180, (S)-1-(cyclohex-1-en-1-yl)-7-(piperidin-3-ylamino)-2,6-naphthyridine-3-carbonitrile] | 7 | 204 | 844 | 
18 | N#Cc1cc2cnc(N[C@H]3CCCNC3)cc2c(C2=CCCC2)n1 [Compound 181] | 7 | 518 | 153 | 
19 | CC(C)Nc1nc(C#N)cc2cnc(N[C@H]3C[C@H](N)C3)cc12 [Compound 183, 7-(((1r,3r)-3-aminocyclobutyl)amino)-1-(isopropylamino)-2,6-naphthyridine-3-carbonitrile] | 1 | 50 | 28 | 
20 | N#Cc1cc2cnc(N[C@H]3CCCNC3)cc2c(OC2CCCC2)n1 [Compound 185, (S)-1-(cyclopentyloxy)-7-(piperidin-3-ylamino)-2,6-naphthyridine-3-carbonitrile] | 3 | 134 | 356 | 
21 | N#Cc1cc2cnc(N[C@H]3CCCNC3)cc2c(C2CCCC2)n1 [Compound 187, (S)-1-cyclopentyl-7-(piperidin-3-ylamino)-2,6-naphthyridine-3-carbonitrile] | 8 | 413 | 958 | 
22 | CCOc1nc(C#N)cc2cnc(N[C@H]3C[C@H](N)C3)cc12 [Compound 191, 7-(((1r,3r)-3-aminocyclobutyl)amino)-1-ethoxy-2,6-naphthyridine-3-carbonitrile] | 5 |  | 1110 | 1950
23 | CC(C)Nc1nc(C(F)F)cc2cnc(N[C@H]3C[C@H](N)C3)cc12 [Compound 206, N^7-((1r,3r)-3-aminocyclobutyl)-3-(difluoromethyl)-N^1-isopropyl-2,6-naphthyridine-1,7-diamine] | 1 | 25 | 6 | 
24 | CC(C)Oc1nc(C#N)cc2cnc(N[C@H]3C[C@H](N)C3)cc12 [Compound 207, 7-(((1r,3r)-3-aminocyclobutyl)amino)-1-isopropoxy-2,6-naphthyridine-3-carbonitrile] | 1 | 126 | 29 | 

From patent US20250163043A1 (TRANSTHERA SCIENCES (NANJING), INC., priority 2021, published 2025)
